Source: PMC5218480 (PLoS ONE, 2017)

System: MV-4-11 cells
Assay: Gene expression microarray analysis (Affymetrix PrimeView) and GSEA
Format: cell-based, human
Parameters: RFU PODN (11730768_x_at) / Fold change /veh PODN (11730768_x_at) / RFU LINC00158 (11744669_a_at) / Fold change /veh LINC00158 (11744669_a_at) / RFU DUSP10 (11751237_a_at) / Fold change /veh DUSP10 (11751237_a_at) / RFU ID3 (11757404_x_at) / Fold change /veh ID3 (11757404_x_at) / RFU PLEKHG5 (11737974_s_at) / Fold change /veh PLEKHG5 (11737974_s_at) / RFU LRRC4B (11730491_at) / Fold change /veh LRRC4B (11730491_at) / RFU GIMAP4 (11747438_a_at) / Fold change /veh GIMAP4 (11747438_a_at) / RFU KRT8 (11758183_x_at) / Fold change /veh KRT8 (11758183_x_at) / RFU CNN1 (11734310_a_at) / Fold change /veh CNN1 (11734310_a_at) / RFU VPS37D (11726825_at) / Fold change /veh VPS37D (11726825_at) / RFU C10orf10 (11716522_x_at) / Fold change /veh C10orf10 (11716522_x_at) / RFU KIR2DL2 /// KIR2DL4 /// KIR2DL5A /// KIR2DL5B /// KIR2DS1 /// KIR2DS2 /// KIR2DS3 /// KIR2DS4 /// KIR3DL3 /// KIR3DL3 /// KIR3DS1 (11738374_at) / Fold change /veh KIR2DL2 /// KIR2DL4 /// KIR2DL5A /// KIR2DL5B /// KIR2DS1 /// KIR2DS2 /// KIR2DS3 /// KIR2DS4 /// KIR3DL3 /// KIR3DL3 /// KIR3DS1 (11738374_at) / RFU C1QL1 (11718748_at) / Fold change /veh C1QL1 (11718748_at) / RFU TMPRSS4 (11747572_a_at) / Fold change /veh TMPRSS4 (11747572_a_at) / RFU HAMP (11756126_x_at) / Fold change /veh HAMP (11756126_x_at) / RFU RNFT2 (11725882_a_at) / Fold change /veh RNFT2 (11725882_a_at) / RFU NR4A2 (11747474_a_at) / Fold change /veh NR4A2 (11747474_a_at) / RFU ABCC12 (11746883_a_at) / Fold change /veh ABCC12 (11746883_a_at) / RFU TMEM136 (11760407_x_at) / Fold change /veh TMEM136 (11760407_x_at) / RFU CLDN22 /// WWC2 (11732394_at) / Fold change /veh CLDN22 /// WWC2 (11732394_at) / RFU HLA-DPB1 (11760878_x_at) / Fold change /veh HLA-DPB1 (11760878_x_at) / RFU SPINT1 (11716480_a_at) / Fold change /veh SPINT1 (11716480_a_at) / RFU GAP43 (11754022_s_at) / Fold change /veh GAP43 (11754022_s_at) / RFU A4GNT (11735810_at) / Fold change /veh A4GNT (11735810_at) / RFU PRB3 (11715151_x_at) / Fold change /veh PRB3 (11715151_x_at) / RFU TUBB4B (11761932_at) / Fold change /veh TUBB4B (11761932_at) / RFU CAPN14 (11732068_a_at) / Fold change /veh CAPN14 (11732068_a_at) / RFU TMCC2 (11721928_a_at) / Fold change /veh TMCC2 (11721928_a_at) / RFU IRGQ (11745062_a_at) / Fold change /veh IRGQ (11745062_a_at) / RFU FAM174B (11720279_a_at) / Fold change /veh FAM174B (11720279_a_at) / RFU TMPRSS4 (11748680_a_at) / Fold change /veh TMPRSS4 (11748680_a_at) / RFU FAM212B (11763350_a_at) / Fold change /veh FAM212B (11763350_a_at) / RFU PLEKHG5 (11743358_a_at) / Fold change /veh PLEKHG5 (11743358_a_at) / RFU ZSCAN30 (11745921_a_at) / Fold change /veh ZSCAN30 (11745921_a_at) / RFU CMKLR1 (11741424_a_at) / Fold change /veh CMKLR1 (11741424_a_at) / RFU LOC101060620 /// MAPK8IP1 (11723275_at) / Fold change /veh LOC101060620 /// MAPK8IP1 (11723275_at) / RFU SPTSSB (11747773_x_at) / Fold change /veh SPTSSB (11747773_x_at) / RFU PRSS12 (11739890_at) / Fold change /veh PRSS12 (11739890_at) / RFU BIN1 (11741810_x_at) / Fold change /veh BIN1 (11741810_x_at) / RFU WNT11 (11732464_a_at) / Fold change /veh WNT11 (11732464_a_at) / RFU C10orf10 (11716521_a_at) / Fold change /veh C10orf10 (11716521_a_at) / RFU C5orf56 (11738089_at) / Fold change /veh C5orf56 (11738089_at) / RFU CYB561 (11721691_x_at) / Fold change /veh CYB561 (11721691_x_at) / RFU ANKRD19P (11752326_a_at) / Fold change /veh ANKRD19P (11752326_a_at) / RFU OR2T12 /// OR2T33 /// OR2T8 (11738714_s_at) / Fold change /veh OR2T12 /// OR2T33 /// OR2T8 (11738714_s_at) / RFU VCAN (11748164_a_at) / Fold change /veh VCAN (11748164_a_at) / RFU JSRP1 (11732532_at) / Fold change /veh JSRP1 (11732532_at) / RFU KRTAP10-11 (11738290_x_at) / Fold change /veh KRTAP10-11 (11738290_x_at) / RFU MYO3A (11730013_a_at) / Fold change /veh MYO3A (11730013_a_at) / RFU EBF3 (11725865_a_at) / Fold change /veh EBF3 (11725865_a_at) / RFU CAMK2N1 (11719241_x_at) / Fold change /veh CAMK2N1 (11719241_x_at) / RFU C5orf56 (11738088_a_at) / Fold change /veh C5orf56 (11738088_a_at) / RFU OLFML3 (11715873_a_at) / Fold change /veh OLFML3 (11715873_a_at) / RFU LOC100653217 /// NTM (11731650_a_at) / Fold change /veh LOC100653217 /// NTM (11731650_a_at) / RFU MAPK11 (11762145_a_at) / Fold change /veh MAPK11 (11762145_a_at) / RFU FIZ1 (11724087_x_at) / Fold change /veh FIZ1 (11724087_x_at) / RFU OASL (11726364_x_at) / Fold change /veh OASL (11726364_x_at) / RFU SOX15 (11748057_x_at) / Fold change /veh SOX15 (11748057_x_at) / RFU CD79A (11719716_a_at) / Fold change /veh CD79A (11719716_a_at) / RFU HIST1H1D (11736915_at) / Fold change /veh HIST1H1D (11736915_at) / RFU CASKIN2 (11723855_a_at) / Fold change /veh CASKIN2 (11723855_a_at) / RFU LOC730098 (11760151_x_at) / Fold change /veh LOC730098 (11760151_x_at) / RFU OR4N2 (11742367_at) / Fold change /veh OR4N2 (11742367_at) / RFU PRRT2 (11749266_a_at) / Fold change /veh PRRT2 (11749266_a_at) / RFU SNX32 (11753110_a_at) / Fold change /veh SNX32 (11753110_a_at) / RFU CDHR5 (11726645_a_at) / Fold change /veh CDHR5 (11726645_a_at) / RFU RCAN1 (11760418_a_at) / Fold change /veh RCAN1 (11760418_a_at) / RFU FAM167A (11723789_a_at) / Fold change /veh FAM167A (11723789_a_at) / RFU FAM26E (11764081_at) / Fold change /veh FAM26E (11764081_at) / RFU ISYNA1 (11749810_s_at) / Fold change /veh ISYNA1 (11749810_s_at) / RFU ACY1 (11761880_at) / Fold change /veh ACY1 (11761880_at) / RFU 11764098_at / Fold change /veh 11764098_at / RFU SAMD14 (11745864_x_at) / Fold change /veh SAMD14 (11745864_x_at) / RFU NPB (11741838_a_at) / Fold change /veh NPB (11741838_a_at) / RFU TMPRSS6 (11731388_a_at) / Fold change /veh TMPRSS6 (11731388_a_at) / RFU KRTAP10-2 (11738614_at) / Fold change /veh KRTAP10-2 (11738614_at) / RFU ARHGAP8 /// PRR5-ARHGAP8 (11727945_x_at) / Fold change /veh ARHGAP8 /// PRR5-ARHGAP8 (11727945_x_at) / RFU KRTAP5-7 /// NADSYN1 (11734609_at) / Fold change /veh KRTAP5-7 /// NADSYN1 (11734609_at) / RFU RASL12 (11751679_a_at) / Fold change /veh RASL12 (11751679_a_at) / RFU CDKN2B (11736163_a_at) / Fold change /veh CDKN2B (11736163_a_at) / RFU PRF1 (11729649_at) / Fold change /veh PRF1 (11729649_at) / RFU, ZNF638 /// ZNF638-IT1 / Fold change vs veh, ZNF638 /// ZNF638-IT1 / RFU, PANK3 / Fold change vs veh, PANK3 / RFU, SH3YL1 / Fold change vs veh, SH3YL1 / RFU, ZEB2 / Fold change vs veh, ZEB2 / RFU, NRIP1 / Fold change vs veh, NRIP1 / RFU, PTTG1IP / Fold change vs veh, PTTG1IP / RFU, CAPN2 / Fold change vs veh, CAPN2 / RFU, MED14 / Fold change vs veh, MED14 / RFU, SNORA58 / Fold change vs veh, SNORA58 / RFU, C1orf63 / Fold change vs veh, C1orf63 / RFU, LRRFIP1 / Fold change vs veh, LRRFIP1 / RFU, NDUFAF7 / Fold change vs veh, NDUFAF7 / RFU, SLC12A2 / Fold change vs veh, SLC12A2 / RFU, IBTK / Fold change vs veh, IBTK / RFU, ESF1 / Fold change vs veh, ESF1 / Fold change vs veh, TMEM50B / RFU, TAOK1 / Fold change vs veh, TAOK1 / RFU, ACBD3 / Fold change vs veh, ACBD3 / RFU, TMA16 / Fold change vs veh, TMA16 / RFU, RWDD3 / Fold change vs veh, RWDD3 / RFU, BCAT1 / Fold change vs veh, BCAT1 / RFU, EDEM3 / Fold change vs veh, EDEM3 / RFU, TMEM33 / Fold change vs veh, TMEM33 / RFU, WDR75 / Fold change vs veh, WDR75 / RFU, AHCTF1 / Fold change vs veh, AHCTF1 / RFU, TFRC / Fold change vs veh, TFRC / RFU, ZDHHC17 / Fold change vs veh, ZDHHC17 / RFU, NOM1 / Fold change vs veh, NOM1 / RFU, ARL8B / Fold change vs veh, ARL8B / RFU, ZBTB11 / Fold change vs veh, ZBTB11 / RFU, TAMM41 / Fold change vs veh, TAMM41 / RFU, KIAA1704 /// LOC100996395 / Fold change vs veh, KIAA1704 /// LOC100996395 / RFU, ING1 / Fold change vs veh, ING1 / RFU, TRMT61B / Fold change vs veh, TRMT61B / RFU, FUBP3 / Fold change vs veh, FUBP3 / RFU, TP53 / Fold change vs veh, TP53 / RFU, TNKS2 / Fold change vs veh, TNKS2 / RFU, ZFP14 / Fold change vs veh, ZFP14 / RFU, ACTR2 / Fold change vs veh, ACTR2 / RFU, PPP3R1 / Fold change vs veh, PPP3R1 / RFU, PIK3R1 / Fold change vs veh, PIK3R1 / RFU, HNRNPA1 / Fold change vs veh, HNRNPA1 / RFU, RNF170 / Fold change vs veh, RNF170 / RFU, ZNF28 / Fold change vs veh, ZNF28 / RFU, RNGTT / Fold change vs veh, RNGTT / RFU, OGT / Fold change vs veh, OGT / RFU, BRD1 / Fold change vs veh, BRD1 / RFU, MARS / Fold change vs veh, MARS / RFU, ZNF655 / Fold change vs veh, ZNF655 / RFU, FAHD1 / Fold change vs veh, FAHD1 / RFU, BDP1 / Fold change vs veh, BDP1 / RFU, LRRCC1 / Fold change vs veh, LRRCC1 / RFU, ARID1A / Fold change vs veh, ARID1A / RFU, ZNF146 / Fold change vs veh, ZNF146 / RFU, ZNF330 / Fold change vs veh, ZNF330 / RFU, GPN3 / Fold change vs veh, GPN3 / RFU, C9orf123 / Fold change vs veh, C9orf123 / RFU, N4BP2L2 / Fold change vs veh, N4BP2L2 / RFU, ARFIP1 / Fold change vs veh, ARFIP1 / RFU, FAM179B / Fold change vs veh, FAM179B / RFU, BCL10 / Fold change vs veh, BCL10 / RFU, UHRF1BP1L / Fold change vs veh, UHRF1BP1L / RFU, BET1 / Fold change vs veh, BET1 / RFU, CNOT2 / Fold change vs veh, CNOT2 / RFU, ZNF268 / Fold change vs veh, ZNF268 / Fold change vs veh, ZNF507 / RFU, DGCR2 / Fold change vs veh, DGCR2 / RFU, WDSUB1 / Fold change vs veh, WDSUB1 / Fold change vs veh, HSP90B1 /// MIR3652 / RFU, ADSS / Fold change vs veh, ADSS / RFU, GK / Fold change vs veh, GK / RFU, ZNF148 / Fold change vs veh, ZNF148 / RFU, TAF9 / Fold change vs veh, TAF9 / RFU, SLC1A5 / Fold change vs veh, SLC1A5 / RFU, SLMO2 / Fold change vs veh, SLMO2 / RFU, ABCC4 / Fold change vs veh, ABCC4 / RFU, LOC101060439 /// RAP1B / Fold change vs veh, LOC101060439 /// RAP1B / RFU, RFX7 / Fold change vs veh, RFX7 / RFU, GTPBP10 / Fold change vs veh, GTPBP10 / RFU, CNEP1R1 / Fold change vs veh, CNEP1R1 / RFU, BIVM-ERCC5 /// ERCC5 / Fold change vs veh, BIVM-ERCC5 /// ERCC5 / RFU, ILF3 / Fold change vs veh, ILF3 / RFU 11762660_at / Fold change /veh 11762660_at / RFU VCAN (11757783_s_at) / Fold change /veh VCAN (11757783_s_at) / RFU DDX43 (11728927_at) / Fold change /veh DDX43 (11728927_at) / RFU KRT8 (11758188_x_at) / Fold change /veh KRT8 (11758188_x_at) / RFU NKD1 (11759106_at) / Fold change /veh NKD1 (11759106_at) / RFU SRD5A1 (11742802_a_at) / Fold change /veh SRD5A1 (11742802_a_at) / RFU TPSAB1 /// TPSB2 (11721975_s_at) / Fold change /veh TPSAB1 /// TPSB2 (11721975_s_at) / RFU GSTM3 (11746129_a_at) / Fold change /veh GSTM3 (11746129_a_at) / RFU IL23R (11737362_x_at) / Fold change /veh IL23R (11737362_x_at) / RFU TMEM51 (11727254_a_at) / Fold change /veh TMEM51 (11727254_a_at) / RFU PIWIL2 (11732686_x_at) / Fold change /veh PIWIL2 (11732686_x_at) / RFU ORM1 (11744905_x_at) / Fold change /veh ORM1 (11744905_x_at) / RFU CCDC152 (11743942_at) / Fold change /veh CCDC152 (11743942_at) / RFU ECM1 (11717891_a_at) / Fold change /veh ECM1 (11717891_a_at) / RFU IL23R (11748794_a_at) / Fold change /veh IL23R (11748794_a_at) / RFU TNFAIP8L3 (11732012_x_at) / Fold change /veh TNFAIP8L3 (11732012_x_at) / RFU MBOAT4 (11741988_at) / Fold change /veh MBOAT4 (11741988_at) / RFU 11764193_at / Fold change /veh 11764193_at / RFU TMEM53 (11763286_at) / Fold change /veh TMEM53 (11763286_at) / RFU MAGEB2 (11727129_at) / Fold change /veh MAGEB2 (11727129_at) / RFU TMEM200A (11744735_a_at) / Fold change /veh TMEM200A (11744735_a_at) / RFU CCDC152 (11751479_a_at) / Fold change /veh CCDC152 (11751479_a_at) / RFU FAM211A (11726209_a_at) / Fold change /veh FAM211A (11726209_a_at) / RFU RGS16 (11746705_a_at) / Fold change /veh RGS16 (11746705_a_at) / RFU VCAN (11755009_s_at) / Fold change /veh VCAN (11755009_s_at) / RFU RHOB (11743442_s_at) / Fold change /veh RHOB (11743442_s_at) / RFU RGS16 (11720943_a_at) / Fold change /veh RGS16 (11720943_a_at) / RFU RGS16 (11720944_at) / Fold change /veh RGS16 (11720944_at) / RFU, VPS4B / Fold change vs veh, VPS4B / RFU, CREB1 / Fold change vs veh, CREB1 / RFU, DNAJC13 / Fold change vs veh, DNAJC13 / RFU, GNAQ / Fold change vs veh, GNAQ / RFU, CDK5R1 / Fold change vs veh, CDK5R1 / RFU, ZRANB3 / Fold change vs veh, ZRANB3 / RFU, CUL4A / Fold change vs veh, CUL4A / RFU, CCNY / Fold change vs veh, CCNY / RFU, UFL1 / Fold change vs veh, UFL1 / RFU, COG3 / Fold change vs veh, COG3 / RFU, DIAPH2 / Fold change vs veh, DIAPH2 / RFU, SKA2 / Fold change vs veh, SKA2 / RFU, AFF3 / Fold change vs veh, AFF3 / RFU, LMF1 / Fold change vs veh, LMF1 / RFU, IPO11 / Fold change vs veh, IPO11 / RFU, DFFB / Fold change vs veh, DFFB / RFU, FOXP1 / Fold change vs veh, FOXP1 / RFU, CARD8 / Fold change vs veh, CARD8 / RFU, STRN3 / Fold change vs veh, STRN3 / RFU, ADK / Fold change vs veh, ADK / RFU, RASSF2 / Fold change vs veh, RASSF2 / RFU, WIPF1 / Fold change vs veh, WIPF1 / RFU, LARP1B / Fold change vs veh, LARP1B / RFU, RASA1 / Fold change vs veh, RASA1 / RFU, RB1 / Fold change vs veh, RB1 / RFU, PPFIA1 / Fold change vs veh, PPFIA1 / RFU, MAT2A / Fold change vs veh, MAT2A / RFU, CCT5 / Fold change vs veh, CCT5 / RFU, WDR92 / Fold change vs veh, WDR92 / RFU, CUX1 / Fold change vs veh, CUX1 / RFU, TTC7A / Fold change vs veh, TTC7A / RFU, TMEM135 / Fold change vs veh, TMEM135 / RFU, DEPTOR / Fold change vs veh, DEPTOR / RFU, CPM / Fold change vs veh, CPM / RFU, DNAJB6 / Fold change vs veh, DNAJB6 / RFU, CACNA2D3 / Fold change vs veh, CACNA2D3 / RFU, DTX4 / Fold change vs veh, DTX4 / RFU, TFCP2 / Fold change vs veh, TFCP2 / RFU, GMCL1 /// GMCL1P1 / Fold change vs veh, GMCL1 /// GMCL1P1 / RFU, AEBP2 / Fold change vs veh, AEBP2 / RFU, SNHG1 /// SNORD22 /// SNORD25 /// SNORD26 /// SNORD27 /// SNORD28 /// SNORD29 /// SNORD31 / Fold change vs veh, SNHG1 /// SNORD22 /// SNORD25 /// SNORD26 /// SNORD27 /// SNORD28 /// SNORD29 /// SNORD31 / Fold change (Aza/veh), C12orf56 (ProbeSet 11735607_a_at) / Fold change (ACY-1035/veh), C12orf56 (ProbeSet 11735607_a_at) / Fold change (Aza/veh), FGFR1OP (ProbeSet 11751329_s_at) / Fold change (ACY-1035/veh), FGFR1OP (ProbeSet 11751329_s_at) / Fold change (Aza/veh), VPS36 (ProbeSet 11739960_a_at) / Fold change (ACY-1035/veh), VPS36 (ProbeSet 11739960_a_at) / RFU SYPL1 (11715823_x_at) / Fold change /veh SYPL1 (11715823_x_at) / RFU IGFBP7 (11715501_s_at) / Fold change /veh IGFBP7 (11715501_s_at) / RFU REEP3 (11722064_at) / Fold change /veh REEP3 (11722064_at) / RFU IGLL1 (11728026_x_at) / Fold change /veh IGLL1 (11728026_x_at): dose or concentration left out as unconfirmed
Settings: ProbeSet 11734782_x_at; LIST D

SMILES: Nc1ccc(-c2cccs2)cc1NC(=O)c1ccc2c(c1)cc(C1CC1)n2CCN1CCOCC1 [ACY-1035]
- Fold change vs veh, WDR92: 0.89
